{
  "source": "patent US20220089540A1",
  "about": "(Board of Trustees of Michigan State University, priority 2019, published 2022)",
  "key": {"[1]": {"assay": "Toxicity in A/J mice with lung tumors fed rexinoids plus carboplatin and paclitaxel", "format": "in vivo", "details": "100 mg/kg diet, 7 weeks", "procedure": "A/J mice with lung tumors (detected by ultrasound) were fed rexinoids in their diets (at 100 mg/kg diet) and injected twice every other week with carboplatin and paclitaxel."}, "RXR": {"molecular_target": "RXR", "details": "read-out: Kd for RXR; cited from earlier work"}, "PD-L1": {"system": "PD-L1", "assay": "PD-L1 in THP-1 cells stimulated with SK-BR-3 conditioned media (flow cytometry)", "format": "cell-based, human", "details": "24 hours", "procedure": "THP-1 (ATCC) cells were cultured in RPMI supplemented with 5% FBS, and SK-BR-3 (ATCC) cells were cultured in DMEM supplemented with 10% FBS. THP-1 cells were cultured at 50000/well in a 6 well plate for 24 hours to determine PD-L1 levels with conditioned media from SK-BR-3 cells. Culturing SK-BR-3 cells at 60-70% confluence for 24 hours generated conditioned media; media was then collected and centrifuged at 900 rpm for 5 minutes to eliminate any cell debris. THP-1 cells were then plated at 100000 cells/well with the conditioned media, LG268 was added simultaneously.\nFor PD-L1 staining, RAW 264.7 cells were plated at 25000 cells/ml in 6 well plates for 24 hours before adding conditioned media from E18-14C-27 and LG268. RAW 264.7 cells were cultured for additional 24 hours with E18-14C-27 conditioned media and LG268. […] THP-1 cells were stained and analyzed for the levels of PD-L1 following the same protocol."}, "tumors of PyMT mice [2]": {"system": "tumors of PyMT mice", "assay": "PyMT mouse model of triple negative breast cancer, treatment until endpoint", "format": "in vivo", "procedure": "To determine if the immune modulation induced by LG268 treatment in MMTV-Neu mice could be extended to a model of triple negative breast cancer (TNBC), the inventors repeated the in vivo studies in PyMT mice. PyMT mice with a tumor volume of 32-64 mm^3 were treated with LG268 (100 mg/kg of diet) or with a control diet until the tumor burden met maximum defined endpoints allowed by the IACUC-approved animal protocol (individual tumor volume <520 mm^3). In mice receiving the control diet, these tumors progressed extremely rapidly so that the average age to reach maximum tumor volume was 31 days."}, "tumors of PyMT mice [3]": {"system": "tumors of PyMT mice", "assay": "PyMT mice, 15-day protocol with or without anti-PD-L1 antibodies", "format": "in vivo, mouse", "procedure": "To evaluate if LG268 treatment would have immunomodulatory effects, PyMT mice with a tumor volume of 32-64 mm^3 were treated with LG268 (100 mg/kg of diet) or control diet for 14 days (FIG. 7A). Mice were euthanized at day 15, and tumor, intact mammary gland and spleen were analyzed by flow cytometry, immunohistochemistry and immunoblotting (whole tumor lysates). At day 15, mice treated with LG268 presented higher levels of PD-L1 when compared with control mice (FIG. 7D-7E).\nThe inventors tested whether the combination of an immune checkpoint inhibitor and LG268 for the treatment of PyMT tumors would further increase the infiltration of cytotoxic CD8 T cells. PyMT mice with 32-64 mm3 mice were treated by intraperitoneal injection with anti-PD-L1 (40 μg/mouse) or isotype control antibodies on days 3, 7 and 11, in combination with LG268 or control diet (FIG. 7A)."}, "RAR receptor": {"system": "RAR receptor", "details": "cited from earlier work"}, "CD3 T cells": {"system": "CD3 T cells", "assay": "CD8 subpopulations in isolated spleen CD3 T cells (flow cytometry)", "format": "cell-based, mouse", "details": "anti-CD3ε, 3 days", "procedure": "Cells were cultured for a total of 3 days.\nYellow zombie (Biolegend) staining was used to exclude dead cells."}, "FOXP3": {"system": "FOXP3", "assay": "FOXP3 mRNA in isolated spleen CD4 T cells skewed towards Tregs", "details": "LG268 added for 4 days"}, "CD206": {"system": "CD206", "assay": "CD206 expression in RAW 264.7 cells stimulated with E18-14C-27 conditioned media (immunoblot)", "format": "cell-based, mouse", "details": "increasing concentrations, 24 hours", "procedure": "RAW 264.7 mouse macrophage-like (ATCC) and E18-14C-27 (Wu et al., Cancer Res. 62, 6376-6380 (2002)) cells were cultured in DMEM supplemented with 10% fetal bovine serum (FBS). RAW 264.7 cells were cultured at 50000/well in a 6 well plate for 24 hours to determine PD-L1 levels. E18-14C-27 cells were cultured for 72 hours in the presence of LG268 for protein levels. Conditioned media was collected from E18-14C-27 at 60-70% confluence for 24 hours; media was then collected and centrifuged at 900 rpm for 5 minutes to eliminate any cell debris.\nTo explore whether the expression of CD206 in macrophages is dependent on stimulatory factors from tumor cells (e.g., tumor educated macrophages), conditioned media was collected from an established cell line (E18-14C-27 cells) derived from a mammary tumor of an MMTV-Neu mouse. When RAW 264.7 (macrophage-like) cells were stimulated with conditioned media from the E18-14C-27 cancer cells and treated with increasing concentrations of LG268 for 24 hours, a decrease in the expression of CD206 was observed by immunoblotting (FIG. 2E)."}, "[4]": {"system": "mammary gland tumors of MMTV-Neu mice", "assay": "MMTV-Neu mouse model of HER2 positive breast cancer, rexinoid in diet"}, "[5]": {"details": "100 mg/kg diet, LG268 5 days, bexarotene 10 days, western blot"}},
  "data": [
    {"smiles": "Cc1cc2c(cc1C1(c3ccc(C(=O)O)cn3)CC1)C(C)(C)CCC2(C)C", "note": "[LG268]", "values": [
      {"measurement": "toxicity findings (liver, triglycerides, cholesterol, fur)", "setting": "[1]", "result": "hepatomegaly, with elevated triglycerides and cholesterol"},
      {"measurement": "Kd", "setting": "RXR", "result": "[…]"},
      {"measurement": "PD-L1 levels in THP-1 human macrophages", "setting": "PD-L1", "result": "increases"},
      {"measurement": "average survival (time to maximum tumor volume)", "setting": "tumors of PyMT mice [2]; 100 mg/kg diet, control 31 days", "result": 49, "unit": "days"},
      {"measurement": "infiltration of CD8 T cells", "setting": "tumors of PyMT mice [2]; at endpoint", "result": "[…]"},
      {"measurement": "levels of CD206 and p-STAT3 in whole lysates of the tumors", "setting": "tumors of PyMT mice [2]; at endpoint", "result": "No differences"},
      {"measurement": "cells undergoing apoptosis (cleaved caspase 3)", "setting": "tumors of PyMT mice [2]; immunohistochemistry at endpoint", "result": "higher number of cells undergoing apoptosis"},
      {"measurement": "p-STAT1 in whole lysates of tumors", "setting": "tumors of PyMT mice [2]; western blot at endpoint", "result": "tendency for lower levels"},
      {"measurement": "PD-L1 levels in tumors vs control", "setting": "tumors of PyMT mice [3]; 100 mg/kg diet, day 15", "result": "higher levels"},
      {"measurement": "immune cell populations infiltrating to the tumors", "setting": "tumors of PyMT mice [3]; LG268 alone, day 15", "result": "did not induce any changes"},
      {"measurement": "spleen weight vs control diet", "setting": "tumors of PyMT mice [3]; LG268 only", "result": "significant decrease"},
      {"measurement": "binding to the RAR receptor", "setting": "RAR receptor", "result": "does not bind"},
      {"measurement": "CD8 naive and central memory cells", "setting": "CD3 T cells", "result": "increased percentage"},
      {"measurement": "reduction of FOXP3 mRNA expression vs vehicle control", "setting": "FOXP3", "result": 40, "unit": "%"},
      {"measurement": "CD206 expression", "setting": "CD206", "result": "decrease"},
      {"measurement": "PD-1 expression in tumors vs control", "setting": "[4]; 100 mg/kg diet, 5 days", "result": "lower"},
      {"measurement": "PD-L1 expression in tumors vs control", "setting": "[4]; 100 mg/kg diet, LG268 5 days, CW-V-125 10 days, western blot and/or immunohistochemistry", "result": "significantly higher"},
      {"measurement": "myeloid derived suppressor cells (CD45+, CD11b+, Gr1+) in tumors", "setting": "[4]; 100 mg/kg diet, LG268 5 days, bexarotene 10 days, control 1.9%", "result": "0.8 % of CD45+ immune cells"},
      {"measurement": "mammary tumor size (tumor weight as percentage of total body weight)", "setting": "[4]; 100 mg/kg diet, LG268 5 days, bexarotene 10 days, control diet 3.2%", "result": "1.1 % of total body weight"},
      {"measurement": "cleaved caspase 3 in tumors", "setting": "[4]; 100 mg/kg diet, LG268 5 days, bexarotene 10 days, immunohistochemistry", "result": "increase"},
      {"measurement": "reduction of CD206 expression in tumor lysates", "setting": "[4]; [5]", "result": 65, "unit": "%"},
      {"measurement": "reduction of p-STAT1 expression in whole tumor lysates", "setting": "[4]; [5]", "result": 80, "unit": "%"},
      {"measurement": "activated CD4 T cells (CD45+, CD3+, CD4+, CD25+) in tumors", "setting": "[4]; 100 mg/kg diet, control 27.5%", "result": 13.0, "unit": "%"},
      {"measurement": "expression of p-STAT3 or p-STAT5 in tumor lysates", "setting": "[4]; 100 mg/kg diet, western blot", "result": "no changes"},
      {"measurement": "caliber of the vessels in the tumors", "setting": "[4]; CD31 immunohistochemistry", "result": "reduced"},
      {"measurement": "FOXP3 expression in tumors", "setting": "[4]; immunohistochemistry", "result": "decreased"},
      {"measurement": "time to complete regression of the tumors", "setting": "[4]; mouse, in vivo", "result": "less than 10 days"}
    ]}
  ]
}
